For data set [1], the system named is Choleterol-Fed Female New Zealand White Rabbits. In words: Hypocholesterolemic effects in cholesterol-fed rabbits: serum cholesterol, lipoprotein cholesterol, triglycerides. It is filed as in vivo. The note with it: % of control, diet 0.4%, 7 days, 0.2% cholesterol chow, N = 5. From the text: (§1) Perform five independent experiments in the following manner. Each study has a control group and 1-5 groups treated with MDL compound (N = 5 per group). Feed Female New Zealand White rabbits (Hazelton, ∼ 2.0-2.3 kg) 0.2% cholesterol enriched rabbit chow (Purina #5322) with or without 0.4% MDL compound. Solubilize the MDL compounds in 100% ethanol. Spray the chow with the MDL mixtures and allow to dry overnight in a chemical fume hood. Spray control chow with ethanol. Feed rabbits 100 grams food per day for 7 days (0.6% MDL 103,491 were fed for 14 days); make available water ad libitum. On day 7, bleed (~ 2 mL) rabbits (fasted overnight) from a marginal ear vein. Euthanize rabbits by carbon dioxide overdose. Record the total body and liver weights in grams. Record food as grams • day^-1 · rabbit^-1. Use aliquots of fresh serum for clinical chemistries, lipoprotein cholesterol determination, thiobarbituric acid reactive substances (TBARS) and compound and metabolite concentrations in serum. Freeze livers (∼ 5 gram aliquots) at -20°C for compound and metabolite concentration determination at a later time.
Allow blood to clot at room temperature for 30 minutes. Obtain serum after centrifugation for 10 min at 5°C at 3000 rpm in a Beckman GPKR centrifuge with a GH rotor. Analyze by a COBAS MIRA autoanalyzer (Roche Diagnostics) using Roche diagnostic reagents for total cholesterol (CHOL, kit # 44334) and triglyceride (TG, kit # 44120). Calculate cholesterol and triglycerides as mg/dL.
Separate lipoprotein fractions (very low density lipoprotein, VLDL, low density lipoprotein, LDL and high density lipoprotein, HDL) on a Sepharose 6HR column (1 x 30 cm, Pharmacia) attached to a Waters Powerline HPLC system. Inject serum (50 µL) onto the column and elute with phosphate buffered saline, pH 7.4, at a flow rate of 0.5 mL/min. Add cholesterol reagent (Roche Diagnostics, kit # 44334, diluted with 20 mL water and then with 20 mL of 0.9% saline) at 0.2 mL/min to the post column eluant and incubate in a knitted PFTE Kratos reaction coil (Applied Biosystems) at 37°C for 5 min. Measure absorbance at 500 nm. The lipoprotein subfractions are quantitated as follows: (total serum cholesterol) x (% area under the curve for each subfraction) [formula]

The nature of data set [2]: Animal parameters (food, body weight, liver weight/body weight) in cholesterol-fed rabbits. It is filed as in vivo, Female New Zealand White rabbits. The note with it: % of control, diet 0.4%, 7 days, 0.2% cholesterol chow, N = 5.
Excerpt: as §1

Data set [3] concerns oxidation of serum lipids. In words: TBARS assay on serum of treated cholesterol-fed rabbits (CuSO4-initiated oxidation). Type of data set: in vivo, Female New Zealand White rabbits. The note with it: % of control, thiobarbituric acid reactive substances as nmole MDA, diet 0.4%, 7 days, N = 5.
Excerpt: as §1, with “Freeze livers (∼ 5 gram aliquots) at -20°C for compound and metabolite concentration determination at a later time.” left out
TBARS are a […] indication of the oxidation of lipids in a sample. […] Upon incubation with thiobarbituric acid, the absorbance of the aldehydes can be detected at 530-540 nm. […] Measure absorbances at 540 nm using a Biotek model EL311 microplate reader. The nmoles of MDA produced are calculated from a standard curve of 0 to 10 nmoles of MDA prepared from malonaldehyde bis(dimethylacetal). […]

Data set [4] in a line: HPLC quantitation of compound and metabolite concentration in rabbit serum and liver. Type of data set: in vivo, Female New Zealand White rabbits. The following applies: female, New Zealand White, oral, 0.4 % in chow, diet 0.4%, 7 days, mean N = 5.
Excerpt: as §1
Determine serum and liver concentrations of parent compounds and the metabolites, bisphenol and diphenoquinone, by reverse phase HPLC using a Waters 990 Powerline system. […] Calculate compound concentrations from known quantities of authentic parent compounds after correction for recovery. […]

Where two headings read alike, the source gives them in different places.

The source of these data is patent EP0942896B1, “SUBSTITUTED PHENOLS AND THIOPHENOLS USEFUL AS ANTIOXIDANT AGENTS” (Aventis Pharmaceuticals Inc., priority 1996, dated 1998).

`CC(C)=CCC[C@H](C)CCOc1cc(C(C)(C)C)c(O)c(C(C)(C)C)c1` [MDL 103,294, Phenol, 2,6-bis(1,1-dimethylethyl)-4-[(3,7-dimethyl-6-octenyl)oxy]-, (S)-] returned an HDL in data set [1] (High Density lipoprotein cholesterol) of 192%. Also, the LDL in data set [1] (Low Density lipoprotein cholesterol) came to 82%. For the same compound, in data set [1] (total cholesterol in serum, fasted overnight), the chol tot. amounted to 94%. The TRIG in data set [1] (triglycerides in serum) is on record as 197%. This compound gave a food in data set [2] (grams eaten per day per rabbit) of 103%. The same compound displayed a lw/bw in data set [2] (liver weight / body weight) of 105%. The compound also had a body wt. in data set [2] (weight in grams) of 100%. The compound also displayed a TBARS in data set [3] of 35%. Also, the concentration at 7 day in data set [4] (parent compound concentration in rabbit liver, read-out: Liver Parent) was determined as 77000 ng/g; in data set [4] (parent compound concentration in rabbit serum, read-out: Serum Parent) it was 19800 ng/mL.
